Like-named read-outs stand apart in the source and are kept apart here.
What was measured:
h-NPP-1 = molecular target: T1, h-NPP-1 (Homo sapiens, UniProt P22413); assay: Nucleotide pyrophosphatase inhibition assay (colorimetric, pNP-TMP substrate), h-NPP-1; assay type: biochemical; conditions: for interaction with enzyme h-NPP-1: result in words
T1 construct: made in house; host or cells: COS-7 cells transiently transfected with a plasmid expressing human NPP-1; lysate/membrane fraction used as the enzyme
T1 sequence (P22413 1-925): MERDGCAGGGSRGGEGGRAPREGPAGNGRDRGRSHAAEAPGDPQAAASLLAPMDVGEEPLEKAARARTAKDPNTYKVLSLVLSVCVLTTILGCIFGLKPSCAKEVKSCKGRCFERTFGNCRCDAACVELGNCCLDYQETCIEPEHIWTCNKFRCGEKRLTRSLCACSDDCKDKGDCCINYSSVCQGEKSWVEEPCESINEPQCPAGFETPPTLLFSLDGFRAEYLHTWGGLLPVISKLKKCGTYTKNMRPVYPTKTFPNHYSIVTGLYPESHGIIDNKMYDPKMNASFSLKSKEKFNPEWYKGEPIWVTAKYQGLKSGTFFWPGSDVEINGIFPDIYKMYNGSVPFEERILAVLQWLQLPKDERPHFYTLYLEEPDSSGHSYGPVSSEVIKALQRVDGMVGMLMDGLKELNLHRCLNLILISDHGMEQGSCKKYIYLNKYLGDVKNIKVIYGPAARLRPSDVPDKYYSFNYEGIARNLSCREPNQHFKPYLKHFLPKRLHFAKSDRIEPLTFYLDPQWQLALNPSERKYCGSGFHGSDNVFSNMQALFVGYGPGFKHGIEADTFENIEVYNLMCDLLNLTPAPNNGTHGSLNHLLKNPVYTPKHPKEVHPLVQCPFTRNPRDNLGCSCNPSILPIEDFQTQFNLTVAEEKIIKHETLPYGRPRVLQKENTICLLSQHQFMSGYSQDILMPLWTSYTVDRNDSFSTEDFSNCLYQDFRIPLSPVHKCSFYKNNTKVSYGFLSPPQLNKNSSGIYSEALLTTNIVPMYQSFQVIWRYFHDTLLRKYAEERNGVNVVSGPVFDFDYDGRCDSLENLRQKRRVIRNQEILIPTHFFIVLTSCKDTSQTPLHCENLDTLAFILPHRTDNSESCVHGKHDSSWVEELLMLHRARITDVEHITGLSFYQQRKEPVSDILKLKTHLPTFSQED
Experimental: (§1) The inhibition potential of all the sulphonate derivatives against NPP1 and NPP3, was determined by considering an already reported colorimetric method with minor modifications. The reaction buffer was comprised of 50 mM Tris-hydrochloric acid, 5 mM magnesium chloride (MgCl2) and 0.1 mM zinc chloride (ZnCl2) with final pH 9.5. For initial screening of compounds, first enzyme and substrate parameters (concentration, temperature, time) were optimized. The reaction assay was performed at 100 µL well volume containing assay buffer, 10 µL of 1 mM test compound prepared in 10% DMSO, enzymes NPP1 (35 ng), NPP3 (94 ng) and assay buffer. The reaction mixture was incubated at 37 °C, 10 minutes for NPP1 and NPP3. Absorbance was taken at wavelength of 405 nm as pre-read by using a microplate reader (BioTek FLx800, Instruments, Inc. USA). After pre-read the artificial substrate p-nitrophenyl 5'-thymidine monophosphate (pNP-TMP), 400 µM for NPP1 and 600 µM in case of NPP3, was added followed by a second incubation at 37 °C, 15 minutes for NPP1 and NPP3. Absorbance was taken as after read. All the experiments were performed in triplicate.
(§2) Cell transfection with human NPPs. Analogous as previously described, COS-7 cells were transfected with plasmids expressing human NPPs ((NPP-1) or (NPP-3)) in 10 cm plates, by using Lipofectamine. The confluent cells were incubated for 5 h at 37 °C in DMEM/F-12 in the absence of fetal bovine serum and with 6 µg of plasmid DNA and 24 µL of lipofectamine reagent. Subsequently, the same volume of DMEM/F-12 containing 20% FBS was added to stop the transfection and cells were harvested 48–72 h later.
(§3) Preparation of membrane fractions. Analogous as previously described, the transfected cells were washed three times with Tris–saline buffer at 4 °C and then the cells were collected by scraping in the harvesting buffer (95 mM NaCl, 0.1 mM PMSF, and 45 mM Tris buffer, pH 7.5). Afterwards, the cells were washed twice by centrifugation at 300g for 5 min at 4 °C [4]. These cells were resuspended in the harvesting buffer containing 1 0 µg/mL aprotinin and then sonicated. Cellular and nuclear debris were discarde d by 10 min centrifugation (300 g at 4 °C). Glycerol (final concentration of 7.5%) was added to the resulting supernatant and all the samples were kept at −80 °C until used. Bra dford microplate assay was used for the estimation of protein concentration. Bovine serum albumin was used as a reference standard.
(§4) Protocol of nucleotide pyrophosphatase (h -NPP-1 & h-NPP-3) activity. Analogous as previously described , the conditions for the assay were optimized with the slight modifications in previously used spectrophotometric method. The reaction was carried out in the assay buffer which contained 5 mM MgCl 2, 0.1 mM ZnCl 2, 25% glycerol and 50 mM tris-hydrochloride (pH: 9.5). Initial screening was performed at a concentration of 0.1 mM of the tested compounds. The total volume of 100 µL contained 70 µL of the assay buffer, 10 µL of tested compound (0.1 mM with final DMSO 1% (v/v)) and 10 µL of h -NPP-1 (27 ng of protein from CO S cell lysate in assay buffer ) or 10 µL of h -NPP-3 (25 ng of protein from COS cell lysate in assay buffer ). The mixture was pre -incubated for 10 minutes at 37 °C and absorbance was measured at 405 nm as pre -read using microplate reader (BioTek FLx800, Instruments, Inc. USA). The reaction was then initiated by the addition of 10 µL of p-Nph-5-TMP substrate at a final concentration of 0.5 mM and the reaction mixture was incubated for 30 more min at 37 °C. The change in the absorbance was measured as after -read. The activity of each compound was compared with the reaction in absence of tested compounds/inhibitors.
(§5) 3 activity were further evaluated for determination of IC 50 values. For this purpose, their dose response curves were obtained by assaying each inhibitor concentration against both NPPs […]
(§6) using the above mentioned reaction conditions. […]

h-NPP-3 = molecular target: T2, h-NPP-3 (Homo sapiens, UniProt O14638); assay: Nucleotide pyrophosphatase inhibition assay (colorimetric, pNP-TMP substrate), h-NPP-3; assay type: biochemical; conditions: for selectivity of inhibitory response towards h-NPP-3: h-NPP-3 versus h-NPP-1, result in words
T2 construct: made in house; host or cells: COS-7 cells transiently transfected with a plasmid expressing human NPP-3; lysate/membrane fraction used as the enzyme
T2 sequence (O14638 1-875): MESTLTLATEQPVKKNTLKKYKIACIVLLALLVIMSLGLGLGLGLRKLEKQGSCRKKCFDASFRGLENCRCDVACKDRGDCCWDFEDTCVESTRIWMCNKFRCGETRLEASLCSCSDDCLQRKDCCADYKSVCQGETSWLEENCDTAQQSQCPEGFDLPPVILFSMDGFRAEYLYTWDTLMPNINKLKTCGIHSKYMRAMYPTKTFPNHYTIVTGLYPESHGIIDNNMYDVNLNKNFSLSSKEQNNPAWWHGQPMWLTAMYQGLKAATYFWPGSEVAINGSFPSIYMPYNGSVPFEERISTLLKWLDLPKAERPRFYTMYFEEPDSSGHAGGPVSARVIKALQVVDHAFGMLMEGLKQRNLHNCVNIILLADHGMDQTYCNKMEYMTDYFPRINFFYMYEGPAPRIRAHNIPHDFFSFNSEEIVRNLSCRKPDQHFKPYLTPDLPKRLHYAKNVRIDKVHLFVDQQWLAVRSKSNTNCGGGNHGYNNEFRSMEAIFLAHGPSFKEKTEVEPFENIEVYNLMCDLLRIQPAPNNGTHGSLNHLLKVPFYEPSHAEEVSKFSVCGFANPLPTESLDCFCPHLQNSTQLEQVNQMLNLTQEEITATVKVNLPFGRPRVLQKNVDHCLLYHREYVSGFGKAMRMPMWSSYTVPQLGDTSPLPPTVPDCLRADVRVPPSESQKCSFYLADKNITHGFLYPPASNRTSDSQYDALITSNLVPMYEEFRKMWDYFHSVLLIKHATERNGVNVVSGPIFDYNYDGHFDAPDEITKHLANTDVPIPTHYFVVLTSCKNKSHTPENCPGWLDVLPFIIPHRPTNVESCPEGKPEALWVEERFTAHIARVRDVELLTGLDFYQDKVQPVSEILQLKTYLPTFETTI
Experimental: as §1, §2, §3, §4, §5, §6

[1] = human recombinant NPP1, pNP-TMP substrate, pH 9.5, 37 °C, absorbance 405 nm, read-out: h-NPP-1 IC50 (µM) ± SEM
[2] = human recombinant NPP3, pNP-TMP substrate, pH 9.5, 37 °C, absorbance 405 nm, read-out: h-NPP-3 IC50(µM) ± SEM
[3] = read-out: h-NPP-3 IC50 ± SEM (unit inferred)

Structure (SMILES) | IC50 (h-NPP-1; [1]) [µM] | selectivity of inhibitory response towards h-NPP-3 (h-NPP-3) | IC50 (h-NPP-3; [2]) [µM] | melting point [°C] | other results
c1ccc(-n2c3ccccc3c3oc4ccccc4c32)cc1 [Compound 5a] | > 100 | selective inhibitory response towards nucleotide pyrophosphatase enzyme h-NPP-3 | 1.38 ± 0.03 | 137 to 139 | 
Cc1ccc(-n2c3ccccc3c3oc4ccccc4c32)cc1 [Compound 5b] | 2.84 ± 0.06 |  | 0.59 ± 0.02 | 134 to 135 | 
FC(F)(F)c1cccc(-n2c3ccccc3c3oc4ccccc4c32)c1 [Compound 5d] | 3.57 ± 0.03 |  | 0.49 ± 0.04 | 178 to 179 | 
COc1ccc(-n2c3ccccc3c3oc4ccccc4c32)cc1 [Compound 5e] | > 100 | selective inhibitory response towards nucleotide pyrophosphatase enzyme h-NPP-3 |  |  | IC50 (h-NPP-3; read-out: inhibitory value for h-NPP-3, IC50 ± SEM): 0.26 ± 0.01 µM
COc1ccc(-n2c3ccccc3c3oc4ccccc4c32)cc1OC [Compound 5f] |  |  |  | 175 to 176 | 
c1ccc(Cn2c3ccccc3c3oc4ccccc4c32)cc1 [Compound 5h] | 2.62 ± 0.03 |  | 0.27 ± 0.06 |  | 
CCCCCCCn1c2ccccc2c2oc3ccccc3c21 [Compound 5i] | 3.27 ± 0.08 |  | 2.55 ± 0.07 |  | 
c1ccc2c(c1)oc1c3ccccc3n(C3CCCCC3)c21 [Compound 5j] | 6.14 ± 0.09 |  | 2.39 ± 0.05 | 163 to 164 | 
Cc1ccc(-n2c3ccccc3c3oc4c5ccccc5n(-c5ccc(C)cc5)c4c32)cc1 [Compound 6a] |  |  | 0.61 ± 0.09 |  | IC50 (h-NPP-1; read-out: inhibitory value for h-NPP-1, IC50 ± SEM): 0.11 ± 0.06 µM
Fc1ccc(-n2c3ccccc3c3oc4c5ccccc5n(-c5ccc(F)cc5)c4c32)cc1 [Compound 6b] | > 100 | highly selective towards h-NPP-3 |  |  | interaction with enzyme h-NPP-1 (h-NPP-1): no interaction with enzyme h-NPP-1; IC50 (h-NPP-3; [3]): 0.13 ± 0.06 µM
FC(F)(F)c1cccc(-n2c3ccccc3c3oc4c5ccccc5n(-c5cccc(C(F)(F)F)c5)c4c32)c1 [Compound 6c] | > 100 | highly selective towards h-NPP-3 |  |  | interaction with enzyme h-NPP-1 (h-NPP-1): no interaction with enzyme h-NPP-1; IC50 (h-NPP-3; [3]): 0.28 ± 0.04 µM
COc1ccc(-n2c3ccccc3c3oc4c5ccccc5n(-c5ccc(OC)cc5)c4c32)cc1 [Compound 6d] | 1.38 ± 0.09 |  | 0.18 ± 0.01 |  | 
c1ccc(Cn2c3ccccc3c3oc4c5ccccc5n(Cc5ccccc5)c4c32)cc1 [Compound 6e] | 0.53 ± 0.09 |  | 0.21 ± 0.04 |  | 
